{"source": "patent US7025968B2", "about": "“CMV vaccines” (ChemoCentryx, Inc., priority 2000, dated 2006)", "key": {"[1]": {"system": "Wild type HCMV virions expressing US28", "test": "125I-fractalkine binding to virions (Example 4), wild type HCMV", "design": "species or system human CMV strain Toledo", "conditions": "3 hours at 4° C., FIG. 7", "description": "(§1) Human dermal fibroblast (HDF) were infected at an MOI of 3 with human CMV strain Toledo or a Toledo strain in which the US28 gene had been replaced with a green fluorescent protein/gpt resistance cassette (Toledo deltaUS28) (see, e.g., Vieira, J. et al. (1998) J. Virol. 72:S158-65). Alternatively, rhesus dermal fibroblasts (RhDF) were infected at an MOI of 3 with rhesus CMV strain 68.1 (see ATCC # VR-677). At 96 hours post infection supernatants were collected.\n(§2) Supernatants were cleared by two spins at 1,500 rpm for 5 minutes in a bench top centrifuge. Virions were pelleted from the supernatant for 30 minutes at 10,000 rpm in a Beckman JA-21 or J-14 centrifuge or other similar centrifuge and resuspended in 0.5 ml TN buffer (0.05 M Tris/HCl, pH 7.4, 0.1M NaCl) then layered onto a 5 ml sucrose density gradient (20% to 70% w/v sucrose in TN) in a SW 50 centrifuge tube. Gradients were spun 90 minutes at 24,000 rpm in a Beckman SW50 centrifuge at 10° C. […]\n(§3) Following incubation, the assay wells were harvested under vacuum using filter plates, pre-soaked with PEI solution. Scintillation fluid was added, the plates sealed and the radioactivity in the various wells counted."}, "US28": {"target": "T1, US28 (Human cytomegalovirus, UniProt P69332)", "T1 sequence (P69332 1-354)": "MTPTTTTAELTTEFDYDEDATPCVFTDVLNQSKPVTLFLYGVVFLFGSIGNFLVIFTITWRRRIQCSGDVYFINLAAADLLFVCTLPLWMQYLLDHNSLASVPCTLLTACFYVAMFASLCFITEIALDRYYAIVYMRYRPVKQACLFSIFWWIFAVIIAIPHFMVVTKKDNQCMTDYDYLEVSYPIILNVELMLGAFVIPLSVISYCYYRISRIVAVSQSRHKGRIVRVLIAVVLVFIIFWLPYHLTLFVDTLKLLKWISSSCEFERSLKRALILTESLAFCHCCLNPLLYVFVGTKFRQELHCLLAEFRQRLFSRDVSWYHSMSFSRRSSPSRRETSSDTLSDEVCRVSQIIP", "conditions": "Kledal et al., 1998; read-out: KI of binding to US28; cited from earlier work"}, "[2]": {"target": "wild type virions (Toledo)", "test": "125I-fractalkine competition binding to purified HCMV virions (Example 1)", "design": "species or system HCMV strain Toledo", "conditions": "about 3 hours at 4° C., FIG. 5, read-out: IC50, unlabeled fractalkine competing off labeled fractalkine", "description": "(§4) Human dermal fibroblasts were infected with HCMV strain Toledo or HCMV TolΔUS28 (Streblow et al., 1999, Cell 99:511-20) at an MOI of 0.01 and maintained at 37° C. and 5% CO2 in Dulbecco's minimal essential medium with 10% fetal calf serum and fed as necessary. At day 15 post infection supernatant was collected and clarified by two rounds of centrifugation at 400 g. Virions from the clarified supernatant were pelleted at 10,000 g, resuspended in TN (50 mM TRIS-Cl pH 7.5, 100 mM NaCl), and purified over two consecutive 20-70% sucrose gradients by standard techniques (Britt W J., 1984, Virology 135: 369-78). Virions were resuspended in 500 ul of assay buffer (20 mM HEPES, 140 mM NaCl, 1 mM CaCl2, 5 mM MgCl2, and with 0.2% bovine serum albumin) and 0.09 mL added to each well of assay plates containing serial dilutions of fractalkine (concentrations between 0-250 nM) in triplicate.\n(§5) Then 0.09 mL of ^125I-fractalkine diluted in assay buffer (final concentration ˜2-10 fM, with ˜30,000 cpm per well) was added, the plates sealed and incubated for approximately 3 hours at 4° C. on a shaker platform. The assay plates were harvested using Packard filter plates, pre-soaked in PEI solution, on the vacuum harvest apparatus. Scintillation fluid (35 μL) was added to all wells, the plates were sealed and counted in a Top Count scintillation counter. […]"}, "[3]": {"system": "HCMV virions lacking US28 (Toledo deltaUS28)", "test": "125I-fractalkine binding to virions (Example 4), US28-deleted HCMV", "design": "species or system human CMV strain Toledo deltaUS28", "conditions": "3 hours at 4° C., FIG. 7", "description": "as §1, §2, §3"}, "[4]": {"system": "rhCMV virions purified from RHDF cells", "test": "125I-fractalkine binding to virions (Example 4), rhCMV", "design": "species or system rhesus CMV strain 68.1", "conditions": "3 hours at 4° C., FIG. 7", "description": "as §1, §2, §3"}, "[5]": {"system": "virions with deletion of US28 from the genome (TolΔUS28)", "test": "125I-fractalkine binding to purified US28-deleted HCMV virions (Example 1)", "conditions": "FIG. 5", "description": "as §4, §5"}, "[6]": {"system": "Rhesus dermal fibroblasts infected with Rhesus CMV", "test": "radioligand binding assay, 125I-fractalkine on rhCMV-infected cells (Example 3)", "conditions": "unlabeled fractalkine vs 125I-fractalkine ~50 pM, 2-4 hours at 4° C., FIG. 6; read-out: IC50, reduction of binding of labeled fractalkine to the receptor by 50%", "description": "Radioligand binding assays were carried our in the following manner. The target cells typically used in these assays were Rhesus dermal fibroblasts which had been infected with Rhesus; CMV for 3-7 days. Lots of cells verified for fractalkine binding were frozen until ready for use. For the assay, cells were thawed, washed, and resuspended in assay buffer (20 mM HEPES pH 7.1, 140 mM NaCl, 1 mM CaCl2, 5 mM MgCl2, and 0.2% bovine serum albumin) to a concentration of from 4×10^5 to 5×10^6 cells/ml.\nSerial dilutions of unlabeled fractalkine were prepared as a 10× solution in 20% DMSO, and 0.02 ml was placed in assay plates. Next 0.09 ml of cells was added to the assay plates containing the unlabeled fractalkine. Lastly, 0.09 ml of ^125I-fractalkine diluted in assay buffer (final concentration ˜50 pM, with 20,000-50,000 cpm per well) was added, the plates sealed and incubated for 2-4 hours at 4° C. on a shaker platform. Assay plates were harvested using Packard GF/B filter plates (pre-soaked in 0.3% polyethyleneimmine (PEI) solution) on a Packard vacuum cell harvester. Scintillation fluid was added to all wells, the plates were sealed and then counted in a Top Count scintillation counter. Control wells containing either diluent only (for total counts) or excess unlabeled fractalkine (1 μg/ml, for non-specific binding) were used to calculate the percent of total inhibition. […]"}}, "note": "pIC50, pKi: −log10 of the molar value."}
{"substance": "fractalkine: CX3C chemokine, tends to be cell bound; binds with very high affinity to the US28 receptor of HCMV", "values": [{"measurement": "binding of radiolabeled fractalkine to virions", "setting": "[1]", "result": "bind fractalkine tightly"}, {"measurement": "pKi", "setting": "US28", "result": "~10.30"}, {"measurement": "pIC50", "setting": "[2]", "result": "~10.40"}, {"measurement": "binding of radiolabeled fractalkine to virions", "setting": "[3]", "result": "do not bind fractalkine"}, {"measurement": "binding of radiolabeled fractalkine to virions", "setting": "[4]", "result": "also bind to fractalkine"}, {"measurement": "binding of labeled fractalkine to virions", "setting": "[5]", "result": "virtually no binding"}, {"measurement": "pIC50", "setting": "[6]", "result": 10.36}]}
